Assay results as given in PMC9607644, “Glycoconjugation of Quinoline Derivatives Using the C-6 Position in Sugars as a Strategy for Improving the Selectivity and Cytotoxicity of Functionalized Compounds” (Molecules, 2022).
Marks after values point to notes of the source that are not given here.

Experiments:
MCF-7 cells = assay: MTT cytotoxicity assay, MCF-7; assay type: cell-based, human; settings: for IC50: Homo sapiens, MCF7, incubation time 72 h; for IC50 / growth inhibitory activity in words, MCF-7: MTT; for Selectivity Index (SI) MCF-7: IC50 NHDF-Neo / IC50 MCF-7, 72 h incubation
Experimental: (§1) An in vitro biological test package was performed for the obtained derivatives. […] The MTT test is a colorimetric method for detecting proliferating cells. It is based on the ability of the enzyme mitochondrial dehydrogenase to convert yellow tetrazole salt (MTT) into purple formazan. The amount of the product formed in the reaction, determined spectrophotometrically, is proportional to the number of living cells.
(§2) The in vitro cytotoxicity of the test compounds was determined by the MTT (3-[4,5–dimethylthiazol-2-yl]-2,5-diphenyltetrazolium bromide) test (Sigma-Aldrich, Taufkirchen, Germany) according to the manufacturer’s protocol. At the beginning, for each cell line were determined the optimal seeding densities to ensure exponential growth throughout the experimental period. The confluent layer of cells were trypsinized, collected, and suspended in a growth medium. […] Then, the culture medium was replaced with solutions of different concentrations of test compounds in a fresh medium. Stock solutions of test compounds were prepared in DMSO and diluted to final concentrations with appropriate volumes of the growth medium directly before the experiment. Cells suspended in a medium supplemented with 0.5% DMSO (the amount of DMSO necessary to dissolve the highest dose of the respective sample) were used as a control of the experiment. […] The compound-treated cells were incubated for a further 24–72 h. […] After this time, the MTT dye was carefully removed, and the acquired formazan crystals were dissolved by DMSO (Chempur, Piekary Śląskie, Poland). The proliferation was evaluated by measuring the formazan product’s absorbance at a wavelength of 570 nm with a microplate spectrophotometer (Epoch, BioTek, Winooski, VT, USA). All experiments were conducted in triplicate with four technical repeats for each tested concentration. Results were expressed as the percentage change in the viability of the test cells relative to the untreated control cells and calculated as the inhibitory concentration (IC50). […] The results are expressed as the average value ± standard deviation (SD).

HCT-116 cells = assay: MTT cytotoxicity assay, HCT-116; assay type: cell-based, human; settings: for IC50: Homo sapiens, HCT-116; for IC50 / growth inhibitory activity in words, HCT-116: MTT
Experimental: as §1, §2

NHDF-Neo cells = assay: MTT cytotoxicity assay, NHDF-Neo; assay type: cell-based; settings: Homo sapiens, incubation time 72 h
Experimental: An in vitro biological test package was performed for the obtained derivatives. All newly synthesized compounds were assessed for their cytotoxic activity against human cell lines with increased GLUT expression: the colon cancer cell line (HCT-116) and the breast cancer cell line (MCF-7), as well as on normal human dermal fibroblasts cells (NHDF-Neo), using the MTT assay (3-(4,5-dimethylthiazol-2-yl)-2,5-diphenyltetrazolium bromide). The MTT test is a colorimetric method for detecting proliferating cells. It is based on the ability of the enzyme mitochondrial dehydrogenase to convert yellow tetrazole salt (MTT) into purple formazan. The amount of the product formed in the reaction, determined spectrophotometrically, is proportional to the number of living cells. The antiproliferative activity was expressed as the concentration that caused 50% inhibition of the growth of the population of cells treated with the test compounds relative to the control cells (inhibitory concentration activity—IC50). Table 1 and Table 2 summarize the IC50 values calculated for all tested compounds.
The in vitro cytotoxicity of the test compounds was determined by the MTT (3-[4,5–dimethylthiazol-2-yl]-2,5-diphenyltetrazolium bromide) test (Sigma-Aldrich, Taufkirchen, Germany) according to the manufacturer’s protocol. At the beginning, for each cell line were determined the optimal seeding densities to ensure exponential growth throughout the experimental period. The confluent layer of cells were trypsinized, collected, and suspended in a growth medium. The cell suspension were then seeded into 96-well plates at a density of 1 × 10^4 or 2 × 10^3 (HCT-116) or 5 × 10^3 (MCF-7, NHDF-Neo) per well and incubated for 24 h under standard conditions (5% CO2, 37 °C). Then, the culture medium was replaced with solutions of different concentrations of test compounds in a fresh medium. Stock solutions of test compounds were prepared in DMSO and diluted to final concentrations with appropriate volumes of the growth medium directly before the experiment. Cells suspended in a medium supplemented with 0.5% DMSO (the amount of DMSO necessary to dissolve the highest dose of the respective sample) were used as a control of the experiment. […] The compound-treated cells were incubated for a further 24–72 h. After that, the medium was removed and the MTT solution (50 µL, 0.5 mg/mL in PBS) was added into each well and incubated for another 3 h under standard conditions (5% CO2, 37 °C). After this time, the MTT dye was carefully removed, and the acquired formazan crystals were dissolved by DMSO (Chempur, Piekary Śląskie, Poland). The proliferation was evaluated by measuring the formazan product’s absorbance at a wavelength of 570 nm with a microplate spectrophotometer (Epoch, BioTek, Winooski, VT, USA). All experiments were conducted in triplicate with four technical repeats for each tested concentration. Results were expressed as the percentage change in the viability of the test cells relative to the untreated control cells and calculated as the inhibitory concentration (IC50). The IC50 values were defined as the drug concentration that was necessary to reduce cell proliferation to 50% of the untreated control and this parameter was calculated using CalcuSyn software (version 2.0, Biosoft, Cambridge, UK). The results are expressed as the average value ± standard deviation (SD).

[1] = IC50 NHDF-Neo / IC50 HCT-116, HCT-116 incubation time 24 h
[2] = IC50 NHDF-Neo / IC50 HCT-116, 72 h incubation

SMILES	IC50 (MCF-7 cells) [µM]	IC50 (HCT-116 cells; incubation time 24 h) [µM]	other results
CC(=O)OC1O[C@H](CN=[N+]=[N-])[C@@H](OC(C)=O)[C@H](OC(C)=O)[C@H]1OC(C)=O (stereo partly drawn) [Compound 5, 1,2,3,4-tetra-O-acetyl-6-azido-6-deoxy-D-glucopyranose]	201 ± 2.09	> 800	–
[N-]=[N+]=NC[C@H]1OC(O)[C@H](O)[C@@H](O)[C@@H]1O (stereo partly drawn) [Compound 6, 6-azido-6-deoxy-D-glucopyranose]	> 800	> 800	–
[N-]=[N+]=NC[C@H]1OC(O)[C@H](O)[C@@H](O)[C@H]1O (stereo partly drawn) [Compound 11, 6-azido-6-deoxy-D-galactopyranose]	> 800	> 800	–
CC(=O)OC1O[C@H](CN=[N+]=[N-])[C@H](OC(C)=O)[C@H](OC(C)=O)[C@H]1OC(C)=O (stereo partly drawn) [Compound 12, 1,2,3,4-tetra-O-acetyl-6-azido-6-deoxy-D-galactopyranose]	641.2 ± 1.79	> 800	–
C#CCNC(=O)[C@H]1O[C@@H](OC(C)=O)[C@H](OC(C)=O)[C@@H](OC(C)=O)[C@@H]1OC(C)=O [Compound 15, 1,2,3,4-tetra-O-acetyl-N-(prop-2-yn-1-yl)-β-D-glucopyranuronic acid amide]	714 ± 15.7	584 ± 9.39	–
C#CCNC(=O)[C@H]1OC(O)[C@H](O)[C@@H](O)[C@@H]1O (stereo partly drawn) [Compound 16, N-(prop-2-yn-1-yl)-D-glucopyranuronic acid amide]	> 800	> 800	–
[N-]=[N+]=NC[C@H]1O[C@H](O[C@H]2O[C@H](CN=[N+]=[N-])[C@@H](O)[C@H](O)[C@H]2O)[C@H](O)[C@@H](O)[C@@H]1O [Compound 20, 6,6′-diazido-6,6′-dideoxy-D-trehalose]	> 800	> 800	melting point: 118 °C
CC(=O)O[C@@H]1[C@@H](OC(C)=O)[C@@H](O[C@H]2O[C@H](CN=[N+]=[N-])[C@@H](OC(C)=O)[C@H](OC(C)=O)[C@H]2OC(C)=O)O[C@H](CN=[N+]=[N-])[C@H]1OC(C)=O [Compound 23, 2,3,4,2′,3′,4′-hexa-O-acetyl-6,6′-diazido-6,6′-dideoxy-D-trehalose]	> 800	> 800	melting point: 92 to 93 °C
CC(=O)OC1O[C@H](Cn2cc(CO)nn2)[C@@H](OC(C)=O)[C@H](OC(C)=O)[C@H]1OC(C)=O (stereo partly drawn) [Compound 29]	> 800	> 800	–
OCc1cn(C[C@H]2OC(O)[C@H](O)[C@@H](O)[C@@H]2O)nn1 (stereo partly drawn) [Compound 30]	> 800	> 800	–
CC(=O)OC1O[C@H](Cn2cc(CO)nn2)[C@H](OC(C)=O)[C@H](OC(C)=O)[C@H]1OC(C)=O (stereo partly drawn) [Compound 31]	> 800	> 800	–
OCc1cn(C[C@H]2OC(O)[C@H](O)[C@@H](O)[C@H]2O)nn1 (stereo partly drawn) [Compound 32]	> 800	> 800	–
CC(=O)OC1O[C@H](C(=O)NCc2cn(CCO)nn2)[C@@H](OC(C)=O)[C@H](OC(C)=O)[C@H]1OC(C)=O (stereo partly drawn) [Compound 33]	> 800	> 800	–
O=C(NCc1cn(CCO)nn1)[C@H]1OC(O)[C@H](O)[C@@H](O)[C@@H]1O (stereo partly drawn) [Compound 34]	> 800	> 800	–
CC(=O)O[C@@H]1[C@@H](OC(C)=O)[C@@H](O[C@H]2O[C@H](Cn3cc(CO)nn3)[C@@H](OC(C)=O)[C@H](OC(C)=O)[C@H]2OC(C)=O)O[C@H](Cn2cc(CO)nn2)[C@H]1OC(C)=O [Compound 35]	> 800	> 800	–
OCc1cn(C[C@H]2O[C@H](O[C@H]3O[C@H](Cn4cc(CO)nn4)[C@@H](O)[C@H](O)[C@H]3O)[C@H](O)[C@@H](O)[C@@H]2O)nn1 [Compound 36]	> 800	> 800	–
CC(=O)OC1O[C@H](Cn2cc(COc3cccc4cccnc34)nn2)[C@H](OC(C)=O)[C@H](OC(C)=O)[C@H]1OC(C)=O (stereo partly drawn) [Compound B-1]	36.67 ± 0.03	75.1 ± 1.3	IC50 (NHDF-Neo cells): 81.42 ± 0.52 µM; Selectivity Index (SI) MCF-7 (MCF-7 cells): 2.22; Selectivity Index (SI) HCT-116 (HCT-116 cells; [1]): 1.08 ^b
OC1O[C@H](Cn2cc(COc3cccc4cccnc34)nn2)[C@H](O)[C@H](O)[C@H]1O (stereo partly drawn) [Compound B-2]	156 ± 7.4	293 ± 8	IC50 (NHDF-Neo cells): 271.6 ± 0.35 µM; Selectivity Index (SI) MCF-7 (MCF-7 cells): 1.74; Selectivity Index (SI) HCT-116 (HCT-116 cells; [1]): 0.93 ^b
CC(=O)O[C@@H]1O[C@H](C(=O)NCc2cn(CCOc3cccc4cccnc34)nn2)[C@@H](OC(C)=O)[C@H](OC(C)=O)[C@H]1OC(C)=O [Compound C-1]	224 ± 7.34	173 ± 6.68	IC50 (NHDF-Neo cells): 215 ± 3.1 µM; Selectivity Index (SI) MCF-7 (MCF-7 cells): 0.96; growth inhibitory activity in words, MCF-7 (MCF-7 cells): did not show significant ability to inhibit cell growth; IC50 (HCT-116 cells; incubation time 72 h): 81.5 ± 3.36 µM; Selectivity Index (SI) HCT-116 (HCT-116 cells; [2]): 2.64; growth inhibitory activity in words, HCT-116 (HCT-116 cells): did not show significant ability to inhibit cell growth
CC(=O)O[C@@H]1O[C@H](C(=O)NCc2cn(CCCOc3cccc4cccnc34)nn2)[C@@H](OC(C)=O)[C@H](OC(C)=O)[C@H]1OC(C)=O [Compound C-2]	157 ± 7.86	94.2 ± 1.48	IC50 (NHDF-Neo cells): 318.5 ± 3.09 µM; Selectivity Index (SI) MCF-7 (MCF-7 cells): 2.03; growth inhibitory activity in words, MCF-7 (MCF-7 cells): did not show significant ability to inhibit cell growth; IC50 (HCT-116 cells; incubation time 72 h): 62.35 ± 0.32 µM; Selectivity Index (SI) HCT-116 (HCT-116 cells; [2]): 5.11; growth inhibitory activity in words, HCT-116 (HCT-116 cells): did not show significant ability to inhibit cell growth
O=C(NCc1cn(CCCOc2cccc3cccnc23)nn1)[C@H]1OC(O)[C@H](O)[C@@H](O)[C@@H]1O (stereo partly drawn) [Compound C-3]	706.6 ± 2.87	> 800	IC50 (NHDF-Neo cells): > 800 µM; growth inhibitory activity in words, MCF-7 (MCF-7 cells): inactive; IC50 (HCT-116 cells; incubation time 72 h): 767 ± 2.39 µM; growth inhibitory activity in words, HCT-116 (HCT-116 cells): inactive
CC(=O)O[C@@H]1[C@@H](OC(C)=O)[C@@H](O[C@H]2O[C@H](Cn3cc(COc4cccc5cccnc45)nn3)[C@@H](OC(C)=O)[C@H](OC(C)=O)[C@H]2OC(C)=O)O[C@H](Cn2cc(COc3cccc4cccnc34)nn2)[C@H]1OC(C)=O [Compound D-1]	30.7 ± 0.99	46.3 ± 3.12	IC50 (NHDF-Neo cells): 34.5 ± 0.39 µM; Selectivity Index (SI) MCF-7 (MCF-7 cells): 1.12; IC50 (HCT-116 cells; incubation time 72 h): 26.3 ± 0.72 µM; Selectivity Index (SI) HCT-116 (HCT-116 cells; [2]): 1.31
